This note sets out measurements from patent US20240368173A1, “TRICYCLIC GPR65 MODULATORS” (PATHIOS THERAPEUTICS LIMITED, priority 2021, published 2024).

Sequence of human recombinant GPR65 (Q8IYL9 whole entry): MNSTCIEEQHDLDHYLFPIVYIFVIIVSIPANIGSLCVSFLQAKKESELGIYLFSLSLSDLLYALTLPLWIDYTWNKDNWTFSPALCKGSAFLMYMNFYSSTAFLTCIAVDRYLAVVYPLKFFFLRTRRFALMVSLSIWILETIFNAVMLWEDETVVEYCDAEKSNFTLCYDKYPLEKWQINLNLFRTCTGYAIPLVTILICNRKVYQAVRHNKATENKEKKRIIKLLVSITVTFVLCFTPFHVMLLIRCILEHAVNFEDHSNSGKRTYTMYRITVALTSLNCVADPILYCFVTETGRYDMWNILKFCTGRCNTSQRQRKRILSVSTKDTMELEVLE

One experiment concerns the target human recombinant GPR65 (Homo sapiens, UniProt Q8IYL9). As to the kind of experiment: Human GPR65 cAMP HTRF antagonist assay. Type of experiment: cell-based.
Details: not given
The method in brief: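 1321N1 astrocytoma cells stably expressing hrGPR65, with IBMX and EDTA, were preincubated with compound 30 min at room temperature, then acid-activated at assay pH 7.2 (control pH 7.9) for 30 min. cAMP read by HTRF (665/620 nm ratio); IC50 from 4-parameter fit normalised to high/low controls.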
For orientation: In TR-FRET formats the signal depends on donor and acceptor labels being close together.
Usually IC50 stands for the concentration needed to halve the response being measured. For `O=C(Nc1cc(Br)c(C(F)(F)F)cc1F)N1[C@H]2CC[C@@H]1c1n[nH]c(=O)cc1C2` [Compound 35, (6S,9R)-N-(5-Bromo-2-fluoro-4-(trifluoromethyl)phenyl)-3-oxo-3,5,6,7,8,9-hexahydro-2H-6,9-epiminocyclohepta[c]pyridazine-10-carboxamide], the IC50 was under 0.5 µM. For `O=C(Nc1cc(Cl)c(-c2cccc3nonc23)cc1F)N1[C@H]2CC[C@@H]1c1n[nH]c(=O)cc1C2` [Compound 210, (6S,9R)-N-(4-(Benzo[c][1,2,5]oxadiazol-4-yl)-5-chloro-2-fluorophenyl)-3-oxo-3,5,6,7,8,9-hexahydro-2H-6,9-epiminocyclohepta[c]pyridazine-10-carboxamide], the IC50 was under 0.5 µM. Same read-out and setting: in the case of `O=C(Nc1ccc(Br)c(Cl)c1)N1C2CCC1c1n[nH]c(=O)cc1C2` (racemic) [Compound 4, (±)-N-(4-Bromo-3-chlorophenyl)-3-oxo-3,5,6,7,8,9-hexahydro-2H-6,9-epiminocyclohepta[c]pyridazine-10-carboxamide] it was under 0.5 µM; in that of `Cc1nnc(-c2cc(F)c(NC(=O)N3[C@H]4CC[C@@H]3c3ccnc(F)c3C4)cc2Cl)s1` [Compound 64, (5R,8S)-N-(5-Chloro-2-fluoro-4-(5-methyl-1,3,4-thiadiazol-2-yl)phenyl)-1-fluoro-6,7,8,9-tetrahydro-5H-5,8-epiminocyclohepta[c]pyridine-10-carboxamide], under 0.5 µM; in that of `O=C(Nc1ccc(C(F)(F)F)c(Cl)c1)N1C2CCC1c1n[nH]c(=O)cc1C2` (racemic) [Compound 76, (±)-N-(3-Chloro-4-(trifluoromethyl)phenyl)-3-oxo-3,5,6,7,8,9-hexahydro-2H-6,9-epiminocyclohepta[c]pyridazine-10-carboxamide], under 0.5 µM.

In the case of `O=C(Nc1cc(Cl)c(-c2ccsn2)cc1F)N1[C@H]2CC[C@@H]1c1n[nH]c(=O)cc1C2` [Compound 191, (6S,9R)-N-(5-Chloro-2-fluoro-4-(isothiazol-3-yl)phenyl)-3-oxo-3,5,6,7,8,9-hexahydro-2H-6,9-epiminocyclohepta[c]pyridazine-10-carboxamide], the IC50 was under 0.5 µM. Turning to `O=C(Nc1cc(Cl)c(Cl)cc1F)N1[C@H]2CC[C@@H]1c1n[nH]c(=O)cc1C2` [Compound 20, (6S,9R)-N-(4,5-Dichloro-2-fluorophenyl)-3-oxo-3,5,6,7,8,9-hexahydro-2H-6,9-epiminocyclohepta[c]pyridazine-10-carboxamide], the IC50 is under 0.5 µM. Regarding `COc1ccc(-c2cc(F)c(NC(=O)N3[C@H]4CC[C@@H]3c3n[nH]c(=O)cc3C4)cc2Cl)cn1` [Compound 171, (6S,9R)-N-(5-Chloro-2-fluoro-4-(6-methoxypyridin-3-yl)phenyl)-3-oxo-3,5,6,7,8,9-hexahydro-2H-6,9-epiminocyclohepta[c]pyridazine-10-carboxamide], the IC50 is under 0.5 µM. For the compound `O=C(Nc1cc(Cl)c(-c2ccc3nsnc3c2)cc1F)N1[C@H]2CC[C@@H]1c1n[nH]c(=O)cc1C2` [Compound 168, (6S,9R)-N-(4-(Benzo[c][1,2,5]thiadiazol-5-yl)-5-chloro-2-fluorophenyl)-3-oxo-3,5,6,7,8,9-hexahydro-2H-6,9-epiminocyclohepta[c]pyridazine-10-carboxamide], the IC50 is under 0.5 µM. Take `O=C(Nc1cc(Cl)c(-c2ccc(F)nc2)cc1F)N1[C@H]2CC[C@@H]1c1ccnc(F)c1C2` [Compound 169, (5R,8S)-N-(5-Chloro-2-fluoro-4-(6-fluoropyridin-3-yl)phenyl)-1-fluoro-6,7,8,9-tetrahydro-5H-5,8-epiminocyclohepta[c]pyridine-10-carboxamide]: the IC50 was under 0.5 µM. Still for that read-out and setting: in the case of `COC(=O)c1cncc(-c2cc(F)c(NC(=O)N3[C@H]4CC[C@@H]3c3n[nH]c(=O)cc3C4)cc2Cl)c1` [Compound 188, Methyl 5-(2-chloro-5-fluoro-4-((6S,9R)-3-oxo-3,5,6,7,8,9-hexahydro-2H-6,9-epiminocyclohepta[c]pyridazine-10-carboxamido)phenyl)nicotinate] it was under 0.5 µM. As for `O=C(Nc1cc(Cl)c(C2CC2)cc1F)N1[C@H]2CC[C@@H]1c1c[nH]c(=O)cc1C2` [Compound 82, (6S,9R)-N-(5-Chloro-4-cyclopropyl-2-fluorophenyl)-3-oxo-3,5,6,7,8,9-hexahydro-2H-6,9-epiminocyclohepta[c]pyridine-10-carboxamide], the IC50 was under 0.5 µM. As to `O=C(Nc1ccc(C2COC2)cc1)N1[C@H]2CC[C@@H]1c1ccnc(F)c1C2` [Compound 58, (5R,8S)-1-Fluoro-N-(4-(oxetan-3-yl)phenyl)-6,7,8,9-tetrahydro-5H-5,8-epiminocyclohepta[c]pyridine-10-carboxamide], the IC50 was 0.5 to 5 µM. As for `O=C(Nc1cc(Cl)c(OC2CCC2)cc1F)N1[C@H]2CC[C@@H]1c1c[nH]c(=O)cc1C2` [Compound 81, (6S,9R)-N-(5-Chloro-4-cyclobutoxy-2-fluorophenyl)-3-oxo-3,5,6,7,8,9-hexahydro-2H-6,9-epiminocyclohepta[c]pyridine-10-carboxamide], the 50% inhibitory concentration (IC50) was under 0.5 µM. As for `O=C(Nc1cc(Br)c(C(F)(F)F)cc1F)N1C2CCC1c1c[nH]c(=O)nc1C2` (racemic) [Compound 17, (±)-N-(5-bromo-2-fluoro-4-(trifluoromethyl)phenyl)-2-oxo-3,5,6,7,8,9-hexahydro-2H-5,8-epiminocyclohepta[d]pyrimidine-10-carboxamide], the IC50 was under 0.5 µM. For `COc1cc(-c2cc(F)c(NC(=O)N3[C@H]4CC[C@@H]3c3ccnc(F)c3C4)cc2Cl)ccn1` [Compound 264, (5R,8S)-N-(5-Chloro-2-fluoro-4-(2-methoxypyridin-4-yl)phenyl)-1-fluoro-6,7,8,9-tetrahydro-5H-5,8-epiminocyclohepta[c]pyridine-10-carboxamide], the IC50 is under 0.5 µM. Same read-out and setting: in the case of `O=C(Nc1ccc(C(F)(F)F)c(Br)c1)N1[C@H]2CC[C@@H]1c1n[nH]c(=O)cc1C2` [Compound 31, (6S,9R)-N-(3-Bromo-4-(trifluoromethyl)phenyl)-3-oxo-3,5,6,7,8,9-hexahydro-2H-6,9-epiminocyclohepta[c]pyridazine-10-carboxamide] it was under 0.5 µM.

The experiment is the same for the next values; noted with them: 1321N1-hrGPR65 cells, cAMP HTRF, assay pH 7.2; read-out: hGPR65 IC50 (Activity of selected compounds according to the invention).
In the case of `O=C(Nc1cc(Cl)c(C(F)(F)F)cn1)N1C2CCC1c1n[nH]c(=O)cc1C2` (racemic) [Compound 12, (±)-N-(4-Chloro-5-(trifluoromethyl)pyridin-2-yl)-3-oxo-3,5,6,7,8,9-hexahydro-2H-6,9-epiminocyclohepta[c]pyridazine-10-carboxamide], the IC50 is 0.5 to 5 µM.

With `O=C(Nc1ccc(OC(F)(F)F)c(Cl)c1)N1[C@@H]2CC[C@H]1c1n[nH]c(=O)cc1C2` [Compound 45, (6R,9S)-N-(3-Chloro-4-(trifluoromethoxy)phenyl)-3-oxo-3,5,6,7,8,9-hexahydro-2H-6,9-epiminocyclohepta[c]pyridazine-10-carboxamide], the IC50 was over 5 µM.

For `O=C(Nc1cc(Cl)c(C(F)(F)F)cc1F)N1C2CCC1[C@@H](O)c1c2ccnc1F` (mixture of isomers) [Compound 156, (±)-(9S)—N-(5-chloro-2-fluoro-4-(trifluoromethyl)phenyl)-1-fluoro-9-hydroxy-6,7,8,9-tetrahydro-5H-5,8-epiminocyclohepta[c]pyridine-10-carboxamide], the IC50 lay in the range of 0.5 to 5 µM.
